Nine molecules from patent publication US10941157B2, “Pesticidal compositions and uses thereof” (Gilead Apollo, LLC, priority 2015, dated 2021) can be followed below.

Holding throughout (type): cell-based
The subject of assay [1] is Septoria tritici (St). Description: In vitro pathogen growth inhibition assay, St. The settings on record: Zymoseptoria tritici, 48 h. Summed up: (§1)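 Value reported is the compound concentration reaching ≥90% growth inhibition, from OD readings at 24 and 48 h after blank subtraction, confirmed visually. Inoculum was spores diluted in 17% V8 medium, except Rs, using 1.5 mm mycelial plugs in ¼ PDB; actual compound concentration corrected via OD600.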

Assay [2] has as its system Fusarium moniliforme (Fm). Description: In vitro pathogen growth inhibition assay, Fm. The following applies: Fusarium verticillioides. Summed up: as §1
The subject of assay [3] is Fusarium virguliforme (Fv). Description: In vitro pathogen growth inhibition assay, Fv. Summed up: (§2)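 Spores in 17% V8 liquid medium, or 1.5 mm Rs mycelial plugs in ¼ PDB, incubated with compound; final concentration checked by OD600 for precipitation. OD readings at 24 and 48 h, blank-subtracted, plus visual ratings; value is concentration giving ≥90% growth inhibition.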

In assay [4] the test system is Phytophthora capsici (Pc). Description: In vitro pathogen growth inhibition assay, Pc. The settings on record: 48 h. Summed up:
as §2

The test system of assay [5] is Diplodia maydis (Dm). The assay can be described thus: In vitro pathogen growth inhibition assay, Dm. The following applies: Stenocarpella maydis, 48 h. Summed up:
as §2

In assay [6] the test system is Botrtyis cinerea (Bc). Description: In vitro pathogen growth inhibition assay, Bc. The following applies: 48 h. Summed up:
as §1

Assay [7] deals with Rhizoctonia solani (Rs). The assay can be described thus: In vitro pathogen growth inhibition assay, Rs (mycelial plugs). The settings on record: Rhizoctonia solani, 48 h. Summed up: as §2
Assay [8] has as its system Collectotrichum graminicola (Cg). Description: In vitro pathogen growth inhibition assay, Cg. The following applies: 48 h. Summed up:
as §1

[9] abbreviates: concentration sufficient to ≥90% inhibition of growth, 48 hours vs 2% DMSO control, read-out: Compound Concentration (ppm) for ≥90% inhibition, St.
[10] abbreviates: concentration sufficient to ≥90% inhibition of growth, 48 hours vs 2% DMSO control, read-out: Compound Concentration (ppm) for ≥90% inhibition, Fm.
Where [11] appears, read: concentration sufficient to ≥90% inhibition of growth, 48 hours vs 2% DMSO control, read-out: Compound Concentration (ppm) for ≥90% inhibition, Fv.
The mark [12] stands for this setting: concentration sufficient to ≥90% inhibition of growth, 48 hours vs 2% DMSO control, read-out: Compound Concentration (ppm) for ≥90% inhibition, Pc.
The mark [13] stands for this setting: concentration sufficient to ≥90% inhibition of growth, 48 hours vs 2% DMSO control, read-out: Compound Concentration (ppm) for ≥90% inhibition, Dm.
Where [14] appears, read: concentration sufficient to ≥90% inhibition of growth, 48 hours vs 2% DMSO control, read-out: Compound Concentration (ppm) for ≥90% inhibition, Bc.
Setting [15] is: concentration sufficient to ≥90% inhibition of growth, 48 hours vs 2% DMSO control, read-out: Compound Concentration (ppm) for ≥90% inhibition, Rs.
Setting [16] is: concentration sufficient to ≥90% inhibition of growth, 48 hours vs 2% DMSO control, read-out: Compound Concentration (ppm) for ≥90% inhibition, Cg.
[17] abbreviates: ≥90% growth inhibition, 48 hours, vs 2% DMSO control, read-out: Compound Concentration (ppm) sufficient for ≥90% inhibition of St.
Where [18] appears, read: ≥90% growth inhibition, 48 hours, vs 2% DMSO control, read-out: Compound Concentration (ppm) sufficient for ≥90% inhibition of Fm.
[19] abbreviates: ≥90% growth inhibition, 48 hours, vs 2% DMSO control, read-out: Compound Concentration (ppm) sufficient for ≥90% inhibition of Fv.
The mark [20] stands for this setting: ≥90% growth inhibition, 48 hours, vs 2% DMSO control, read-out: Compound Concentration (ppm) sufficient for ≥90% inhibition of Pc.
[21] abbreviates: ≥90% growth inhibition, 48 hours, vs 2% DMSO control, read-out: Compound Concentration (ppm) sufficient for ≥90% inhibition of Dm.
Where [22] appears, read: ≥90% growth inhibition, 48 hours, vs 2% DMSO control, read-out: Compound Concentration (ppm) sufficient for ≥90% inhibition of Bc.
Setting [23] is: ≥90% growth inhibition, mycelial plugs, 48 hours, vs 2% DMSO control, read-out: Compound Concentration (ppm) sufficient for ≥90% inhibition of Rs.
[24] abbreviates: ≥90% growth inhibition, 48 hours, vs 2% DMSO control, read-out: Compound Concentration (ppm) sufficient for ≥90% inhibition of Cg.

The structures appear in SMILES notation. ≈ marks a conversion by molar mass, not a printed value. Like-named read-outs stand apart in the source and are kept apart here.

As to `CCNC(=O)C(C)(C)n1c(=O)c2c(C)c(-n3nccn3)sc2n(C[C@@H](OC(C)=O)c2cc(F)ccc2OC)c1=O` [Compound I-318], the IC90 in assay [1] (setting [9]) is above 50 µg/mL; in assay [2] (setting [10]) it was 10 µg/mL (≈ 17.5 µM); in assay [3] (setting [11]), above 50 µg/mL; in assay [4] (setting [12]), above 50 µg/mL; in assay [5] (setting [13]) it was above 50 µg/mL; in assay [6] (setting [14]), 50 µg/mL (≈ 87.3 µM). The IC90 in assay [7] (setting [15]) and in assay [8] (setting [16]) was above 50 µg/mL each time.
`COc1ccc(F)cc1[C@H](Cn1c(=O)n(C(C)(C)C(=O)NC(C)C)c(=O)c2c(C)c(-n3nccn3)sc21)OCCCO` [Compound I-319]: the IC90 is above 50 µg/mL in assay [1] (setting [17]); 2 µg/mL (≈ 3.32 µM) in assay [2] (setting [18]); 10 µg/mL (≈ 16.6 µM) in assay [3] (setting [19]); above 50 µg/mL in assay [4] (setting [20]); above 50 µg/mL in assay [5] (setting [21]); 50 µg/mL (≈ 83 µM) in assay [6] (setting [22]). Besides, the IC90 in assay [7] (setting [23]) and in assay [8] (setting [24]) was above 50 µg/mL in each case.
For `COc1ccc(F)cc1[C@@H](Cn1c(=O)n(C(C)(C)C(=O)NC(C)C)c(=O)c2c(C)c(-n3nccn3)sc21)OCCCO` [Compound I-320], the IC90 in assay [1] (setting [9]) is above 50 µg/mL; in assay [2] (setting [10]), 50 µg/mL (≈ 83 µM); in assay [3] (setting [11]), 50 µg/mL (≈ 83 µM); in assay [4] (setting [12]), above 50 µg/mL; in assay [5] (setting [13]), above 50 µg/mL; in assay [6] (setting [14]), 50 µg/mL (≈ 83 µM). The IC90 in assay [7] (setting [15]) and in assay [8] (setting [16]) was above 50 µg/mL in each case.
In the case of `CCOC(=O)c1sc2c(c1C)c(=O)n(C(C)(C)C(=O)NC(C)C)c(=O)n2C[C@H](OCC(C)(C)C#N)c1cc(F)ccc1OC` [Compound I-321], the IC90 in assay [1] (setting [17]) was above 50 µg/mL; in assay [2] (setting [18]) it was 0.08 µg/mL (≈ 0.127 µM); in assay [3] (setting [19]), 0.4 µg/mL (≈ 0.634 µM); in assay [4] (setting [20]), above 50 µg/mL; in assay [5] (setting [21]), at least 0.4 µg/mL; in assay [6] (setting [22]), 0.4 µg/mL (≈ 0.634 µM). The results for the IC90 in assay [7] (setting [23]) and in assay [8] (setting [24]) were 2 µg/mL (≈ 3.17 µM) and 0.4 µg/mL (≈ 0.634 µM), respectively.
As to `COc1ccc(F)cc1[C@@H](Cn1c(=O)n(C(C)(C)C(=O)NC(C)C)c(=O)c2c(C)c(-n3nccn3)sc21)OC(C)=O` [Compound I-322], the IC90 in assay [1] (setting [9]) is above 50 µg/mL; in assay [2] (setting [10]), 10 µg/mL (≈ 17 µM); in assay [3] (setting [11]) it was at least 10 µg/mL; in assay [4] (setting [12]) it was above 50 µg/mL; in assay [5] (setting [13]) it was above 50 µg/mL; in assay [6] (setting [14]), 10 µg/mL (≈ 17 µM). For the same molecule, the IC90 in assay [7] (setting [15]) and in assay [8] (setting [16]) was above 50 µg/mL each time.
For `CCNC(=O)C(C)(C)n1c(=O)c2c(C)c(-n3nccn3)sc2n(C[C@H](OC(C)=O)c2cc(F)ccc2OC)c1=O` [Compound I-324], the IC90 in assay [1] (setting [17]) was above 50 µg/mL; in assay [2] (setting [18]), 0.4 µg/mL (≈ 0.699 µM); in assay [3] (setting [19]) it was 2 µg/mL (≈ 3.49 µM); in assay [4] (setting [20]), above 50 µg/mL; in assay [5] (setting [21]), 10 µg/mL (≈ 17.5 µM); in assay [6] (setting [22]), 2 µg/mL (≈ 3.49 µM). For the same molecule, the IC90 stood at 2 µg/mL (≈ 3.49 µM) in assay [7] (setting [23]) and 10 µg/mL (≈ 17.5 µM) in assay [8] (setting [24]).
Take `COc1ccc(F)cc1[C@H](Cn1c(=O)n(C(C)(C)C(=O)NC(C)C)c(=O)c2c(C)c(CO)sc21)OCCC#N` [Compound I-325]: the IC90 was above 50 µg/mL in assay [1] (setting [17]); 2 µg/mL (≈ 3.57 µM) in assay [2] (setting [18]); 50 µg/mL (≈ 89.2 µM) in assay [3] (setting [19]); above 50 µg/mL in assay [4] (setting [20]); above 50 µg/mL in assay [5] (setting [21]); 50 µg/mL (≈ 89.2 µM) in assay [6] (setting [22]). The IC90 in assay [7] (setting [23]) and in assay [8] (setting [24]) was above 50 µg/mL throughout.
In the case of `CCc1ccc(F)cc1CCn1c(=O)n(C(C)(C)C(=O)NC(C)C)c(=O)c2c(C)c(-n3nccn3)sc21` [Compound I-326], the IC90 in assay [1] (setting [17]) is above 50 µg/mL; in assay [2] (setting [18]) it was 0.08 µg/mL (≈ 0.152 µM); in assay [3] (setting [19]), 0.08 µg/mL (≈ 0.152 µM); in assay [4] (setting [20]), above 50 µg/mL; in assay [5] (setting [21]), 2 µg/mL (≈ 3.8 µM); in assay [6] (setting [22]), 2 µg/mL (≈ 3.8 µM). The IC90 in assay [7] (setting [23]) was determined as 10 µg/mL (≈ 19 µM); in assay [8] (setting [24]), 2 µg/mL (≈ 3.8 µM).
`Cc1c(-n2nccn2)sc2c1c(=O)n(C(C)(C)C(=O)NC(C)C)c(=O)n2CCc1cc(F)ccc1CCCC#N` [Compound I-328]: the IC90 was above 50 µg/mL in assay [1] (setting [17]); 0.4 µg/mL (≈ 0.707 µM) in assay [2] (setting [18]); 0.4 µg/mL (≈ 0.707 µM) in assay [3] (setting [19]); above 50 µg/mL in assay [4] (setting [20]); 2 µg/mL (≈ 3.54 µM) in assay [5] (setting [21]); 2 µg/mL (≈ 3.54 µM) in assay [6] (setting [22]). In addition, the IC90 in assay [7] (setting [23]) and in assay [8] (setting [24]) was 10 µg/mL (≈ 17.7 µM) each time.
